Experimental findings from US11759434B2, “Methods and compositions for treating melanoma and non-melanoma skin cancers” (Sytheon Limited, priority 2022, dated 2023) are described below.

Structures are written as SMILES.

One data set has as its system AMPK. The data set is described as follows: AMPK activation study (phosphorylation of AMPK at Thr-172) in epidermal keratinocytes. The class given is cell-based, human. The conditions noted are these: for AMPK-P/Protein Ratio: two hours. The protocol: (§1) AMPK activation is a known and efficacious treatment for melanoma and non-melanoma skin cancer (See. e.g., Chen. L. et. al., “AMPK Activation by GSK621 Inhibits Human Melanoma Cells In Vitro and In Vivo”, Biochemical and Biophysical Research Communications 480 (2016), 515-521). To ascertain the ability and efficacy of the compounds of Structure 1 to activate AMPK, a cell assay study was undertaken. In the study, human epidermal keratinocytes were grown using EpiLife Media (60 μM calcium) supplemented with 0.2% v/v bovine pituitary extract, 1 μg/ml recombinant human insulin-like growth factor-I, 0.18 μg/ml hydrocortisone, 5 μg/ml bovine transferrin, 0.2 ng/ml human epidermal growth factor. The cells were grown at 37±2° C. and 5±1% CO2. The keratinocytes were seeded into 96-well plates and cultured overnight to allow the cells to adhere to the well plates. Prior to experimental use, the growth media was replaced with basal media (unsupplemented EpiLife Media) for five hours prior to starting any treatments.
The ability of the test material to activate AMPK was determined by measuring the phosphorylation of AMPK. The epidermal keratinocytes were treated with the test material prepared in basal media for two hours. At the end of the two-hour incubation the culture media was removed and the cells were fixed in 4% formaldehyde for 20 minutes at room temperature. After the fixation, the cells were washed three times with wash solution (1 minute per wash) and any endogenous peroxidase activity was quenched by adding 100 ul of a 0.3% H2O2 solution to the wells and incubating the plate for another 20 minutes. After washing as described above, non-specific antibody binding was blocked by adding 200 ul of blocking buffer to each well and incubating the plate for 1 hour at room temperature. […] After this incubation the well plate was read using a fluorometer at 530ex/590em to determine AMPK phosphorylation and at 360ex/485em to determine total cellular protein.

The subject of data set [1] is Senescent Associated β-Galactosidase (SA-B-Gal). Kind of data set: Senescent Associated β-Galactosidase (SA-B-Gal) activity assay. The class given is cell-based, human. The conditions noted are these: 3 days. Here is the method:
as §1
(§2) The foregoing effect of AZ as an AMPK activator and, in turn, anti-melanoma treatment is especially surprising in light of the pro-viability effect of AZ in normal cells, even those in senescence. Specifically, following on the foregoing experimental methodology, additional studies were conducted on the human keratinocytes cells to assess AZ's impact on cell viability as evidenced by an MTT assay as well as an assessment of its impact on SA-B-Gal activity. In these studies, the human epidermal keratinocytes were treated in basal media for two hours with the test material and then treated with either 50 uM or 100 uM H2O2 in basal media for an additional two hours: the latter treatment to induce senescence. Following the H2O2 treatment, the cells were placed in with fully supplemented EpiLife media for either 16 hours after which changes in cell viability was evaluated via an MTT assay or for 3 days after which changes in the cellular senescence marker beta galactosidase (SA-B-GAL) was evaluated.
SA-B-GAL Calculation: To determine the changes in SA-B-GAL expression a direct measure of SA-B-GAL activity was used. At the end of the three-day incubation the media was removed, 100 ul of ice-cold cell lysis buffer was added and the cells were lysed for 5 minutes at 4° C. At the end of this lysis procedure a portion of the lysate was used for a protein assay while 50 ul of the cell lysate was transferred to a new well plate and combined with an equal volume of SA-B-GAL reaction buffer containing a fluorescent substrate. This well plate was then incubated for 3 hours at 37° C., after which a 50 ul sample of the reaction was combined with 200 ul of stop solution in a new well plate and the plate was read using a fluorometer (360ex/485em), The fluorescence intensity was then normalized to cellular protein and this ratio was used as an index of SA-B-GAL activity.

For data set [2], the system named is human epidermal keratinocytes. Kind of data set: MTT assay (cell viability) after H2O2-induced senescence. The class given is cell-based. The protocol:
as §1, §2
MTT Calculation: the mean MIT absorbance value for untreated cells not exposed to H2O2 was calculated and used to represent 100% cell viability. The individual MIT values from the cells undergoing the various treatments was then divided by the mean value for the untreated cells not exposed to H2O2 and expressed as a percent to determine the change in cell viability caused by each treatment.
In general terms: Tetrazolium dyes change colour on reduction, which living cells bring about.

The subject of data set [3] is patient derived, NRAS-mutated melanoma cells. The data set is described as follows: Cell viability (Alamar blue) in melanoma cells. The class given is cell-based, human. The conditions noted are these: 3 days treatment, 3 biological repeats. Here is the method: (§3) In support of the present teachings several experiments were conducted to assess the cytotoxicity of compound 1 (Acetyl Zingerone CAT), available as Synoxyl® AZ from Sytheon Ltd.) and Compound 4, its mono-methoxy analog (3-(4-Methoxy-benzyl)-pentane-2,4-dione (MBPD)), towards normal melanocytes (Normal, C57BL/6 mouse melanocytes, darkly pigmented), and patient derived, NRAS-mutated melanoma cells. On Day 1, the melanoma cells and normal melanocytes were seeded into the black walled 96 well plates (cat. no.—165305, thermo), ˜1000 cells per well and allowed to stand for one day. […] Thereafter, the dye was replaced with 100 ul PBS (Cat. no. 14190-144, Gibco) and cell viability as evidenced by fluorescence was recorded (by Biotek synergy/H1 microplate reader) at 560/590 nm. Cell survival was calculated by subtracting the background (media only) and then normalizing those results with the results obtained from the cells that were not treated with AZ or MBPD. […]
A general note: Resazurin is reduced to fluorescent resorufin, in cell work by metabolically active cells.

Data set [4] has as its system Trametinib resistant human, NRAS mutated, WM1366 melanoma cells. The data set is described as follows: MBPD/Trametinib synergy, cell viability (Alamar blue). The format is cell-based.
Description: Specifically, Trametinib resistant human, NRAS mutated, WM1366 melanoma cells were created in-house by sequentially treating the cells with various concentrations (2 nM-10 nM) of Trametinib for several weeks. Those cells which survived 2 nM Trametinib after two weeks, were then incubated with 4 nM Trametinib and those that survived 4 nM Trametinib for two weeks were isolated and then incubated with 10 nM for several weeks. This led to development of resistance in the WM1366 cells.
In this study, the Trametinib resistant cells were seeded into black walled 96 well plates (cat. no.—165305, thermo), ˜1000 cells per well employing the same media as noted in Example 1. On Day 2, the cells were treated with 125 or 62.5 μg/ml MBPD and incubated for 48 hours. After 48 hours, fresh cell-culture medium was added with MBPD and Trametinib at concentrations of 30, 15, 7.5, 3.75, 1.875, and 0.9375 nM and the cells allowed to sit for 72 hours. On Day 7, Alamar blue (cat. no. A50101, invitrogen) was added to each well and the cultures incubated for 1 hr in a CO2 incubator. Thereafter, the dye was replaced with 100 ul PBS (Cat no. 14190-144, Gibco) and cell viability as evidenced by fluorescence was recorded (by Biotek synergy/H1 microplate reader) at 560/590 nm.
Molar (M) IC50 values were calculated using formula weight of each of the compounds individually.
Data set [5] concerns Normal, C57BL/6 mouse melanocytes, darkly pigmented. The data set is described as follows: Cell viability (Alamar blue) in normal melanocytes. The class given is cell-based. The conditions noted are these: Melanocyte, 72 h, 3 days treatment, 4 biological repeats. Here is the method: as §3

Regarding `COc1cc(CC(C(C)=O)C(C)=O)ccc1O` [AZ, Acetyl Zingerone], the “AMPK-P/Protein Ratio” value with AMPK (25 μg/ml) came to 4.16 ± 0.65; in the data set with AMPK (50 μg/ml), 6.48 ± 1.10. In addition, the “increase of AMPK activity” value in the data set on AMPK (50 μg/ml) was 88.3%. In addition, the “SA-B-Gal Activity/Protein” value was 3.45 ± 0.29 in data set [1] (12.5 μg/ml, 50 μM H2O2); 3.29 ± 0.37 in data set [1] (12.5 μg/ml, 100 μM H2O2); 3.30 ± 0.23 in data set [1] (25 μg/ml, 50 μM H2O2); 3.95 ± 0.36 in data set [1] (25 μg/ml, 100 μM H2O2); 0.91 ± 0.06 in data set [1] (50 μg/ml, 50 μM H2O2); 0.90 ± 0.15 in data set [1] (50 μg/ml, 100 μM H2O2). Also, the “Viability (% of non-H2O2 exposed cells)” value in data set [2] (12.5 μg/ml, 50 μM H2O2) worked out at 79.9 ± 11.5%; in data set [2] (12.5 μg/ml, 100 μM H2O2), 79.1 ± 1.4%; in data set [2] (25 μg/ml, 50 μM H2O2), 76.1 ± 6.9%; in data set [2] (25 μg/ml, 100 μM H2O2), 77.4 ± 9.6%; in data set [2] (50 μg/ml, 50 μM H2O2), 100.7 ± 8.3 %; in data set [2] (50 μg/ml, 100 μM H2O2), 100.2 ± 6.5%. The IC50 in data set [3] is 1300 µM.
As to `COc1ccc(CC(C(C)=O)C(C)=O)cc1` [MBPD, 3-(4-Methoxy-benzyl)-pentane-2,4-dione], in data set [4] (125 or 62.5 μg/ml MBPD, 48 h pre-incubation then MBPD plus Trametinib 72 h, 2 biological repeats), the “reduction of the Trametinib IC50 by MBPD” value is on record as around 5 fold. In addition, the 50% inhibitory concentration (IC50) in data set [3] (Homo sapiens, 72 h) came out at 400 µM; in data set [5], 14400 µM.
As to `CC(=O)Nc1cccc(-n2c(=O)n(C3CC3)c(=O)c3c(Nc4ccc(I)cc4F)n(C)c(=O)c(C)c32)c1` [Trametinib, trametinib, reference compound], the concentration for half-maximal inhibition (IC50) in data set [4] (Homo sapiens, in-house generated, Trametinib resistant, NRAS-mutated melanoma cells) was in the range of 0.01 to 0.02 µM.

In general, IC50 refers to the concentration that gives 50% inhibition.
